The term Cmax denotes the peak of the concentration-time curve. As usually defined, the Tmax is the time at which the peak concentration occurs. Usually half-life stands for how long it takes for the measured level to halve. For orientation: EC50 means the concentration that produces a half-maximal response. Usually AUC(0-t) stands for the area under the concentration-time curve up to a stated or last time point.

Results on 7 compounds are retold here after patent publication US9127024B2 (Intrexon Corporation, priority 2013, dated 2015).

Molecules are shown by their SMILES.

Data set [1] in a line: Pharmacokinetic (PK) study, oral gavage, plasma LC-MS/MS. To be noted: for Clearance: oral clearance.
Procedure: (§1) Female Sprague Dawley rats were fasted for at least 8 hours (overnight) prior to oral dosing of the compound via gavage (10 mg/kg; vehicle=2 mg/mL of Capryol 90/Triacetin (1:1, v/v); 3 animals/compound) and weighed prior to dosing. The correct volume of the appropriate formulation was administered based on that day's (animal) body weight. Body weight, dose volume, and dosing time was recorded for each animal. Animals were not fed for at least 4 hours following activator ligand administration.
(§2) Approximately 200 μL/blood sample was collected from the catheter sample points in EDTA tubes at each time point from each animal. The exact time of blood collection was recorded for each animal Blood samples were held at 4° C. (wet ice) starting immediately after collection and were centrifuged within 15 minutes from the collection for 12 minutes at 2500 rpm. After centrifugation, plasma samples were stored at ^−80° C. until assay. Sample times were as follows: Day 0: 0, 0.5, 1, 2, 3, 4, 6 and 8 hours; Day 1: 24 hours.
(§3) LC-MS/MS Method: Liquid chromatography tandem mass spectrometry with protein precipitation method was used to quantify the compound in rat plasma samples collected from all animals dosed with the ligand. Linearity range was from 1 ng/mL to 1000 ng/mL, with correlation coefficient for calibration curves above 0.99 and analyte quantified within ±15% of target at all calibrator concentrations.
(§4) The plasma ligand concentration was calculated by extrapolating the area under the curve values for the samples from the standard curve generated by the Analyst® software program. The ng/mL values for the plasma samples representing all the animals were used to generate the pharmacokinetic (PK) parameters.
The target of data set [2] is RheoSwitch® (CHO-K1_RS-1 cells, firefly Luciferase reporter) (Choristoneura fumiferana, UniProt O77240). As to the kind of experiment: in vitro gene switch assay (fLUC Luciferase expression, potency screen). Type of data set: cell-based. To be noted: read-out: fLUC assay EC50, 24 hours with compound, 25 μM to 2.5 pM, figure in parentheses after a value not defined. From the text:
Gene switch assays are disclosed, e.g., in U.S. Pat. Nos. 8,076,517; 7,456,315; 7,304,161; and 6,258,603.
CHO-K1 cells were stably transfected with a plasmid (RS-1, FIG. 1) coding for firefly Luciferase (fLUC) under the control of the RheoSwitch® resulting in the stable cell line CHO-K1_RS-1. A master cell bank was created containing approximately 100 vials at 5×10^6 cells per vial. One vial of CHO-K1_RS-1 was thawed and cultured for two weeks prior to each in vitro potency screening.
Twenty-four (24) hours prior to treatment with the control and test compounds the CHO-K1_RS-1 cells were seeded into white-opaque 384-well cell culture plates at 3,600 cells per well in 30 μl of culture medium. The cells were incubated in a humidified CO2 incubator at 37° C. until compound treatment.
Compounds were prepared at 25 mM in 100% dry DMSO and stored at room temperature in sealed 1 ml tubes prior to subsequent dilution and assay. On the day of cell treatment the tubes containing the control and test compounds were sorted and the ligands transferred to a 96-well polypropylene plate for subsequent dilution. The compounds were diluted in 100% dry DMSO in an 8-point, 10-fold dilution series ranging from 25 mM to 2.5 nM using the Biomek FX automated liquid handler.
The diluted compounds were then transferred to each well of 384-well polypropylene plate in quadruplicate resulting in a single 384-well plate with four replicates of each compound dilution in a different quadrant of the plate. Each well on the 384-well plate received 20 μl of diluted compound. The 384-well plates containing diluted compound and the plates containing cells in culture were loaded onto the Biomek FX and 30 nl of compound was delivered to each well containing cells using a 384-pin V&P Scientific Pin Tool. The resulting 1000-fold dilution (30 nl to 30 μl) generated a final dosing range of 25 μM to 2.5 pM in 0.1% DMSO. Two replicate plates were produced to supply a dedicated plate for the Luciferase expression assay and the APH cell viability assay.
The cells were incubated with the compound for 24 hours in a humidified CO2 incubator at 37° C. Following incubation, the cells were assayed for Luciferase expression (fLUC assay) using the Steady Glo assay from Promega. Cells were equilibrated to room temperature for 15 minutes prior to reagent addition. Thirty micro liters (30 μl) of assay reagent was added to each well of the 384-well plate using the Biomek FX. The reagent was incubated with the cells for 10-120 minutes prior to reading on a Molecular Devices Spectramax L luminometer. The assay reagents were prepared as per the manufacturer's instructions.
The Luciferase expression data was normalized to the baseline signal from cells treated with DMSO alone. The ratio of signal from treated cells to vehicle-treated cells was plotted and non-linear regress was performed using Graph Pad Prism software. EC50, (log)EC50 and Hill slope data was generated. Reporter gene expression, e.g., luciferase expression, serves as a proxy for the expression of a gene of interest. See, e.g., US 2009/0123441 and WO 2011/119773.

The nature of data set [3]: in vivo. To be noted: female, Sprague Dawley, rat, po, 10 mg/kg.
Procedure: as §1, §2, §3, §4
Where [4] appears, read: female Sprague Dawley rats, oral gavage 10 mg/kg, Capryol 90/Triacetin (1:1, v/v), listed as Cpd. No. 13 (Lot # 1), 10 mg/kg.
Where [5] appears, read: female Sprague Dawley rats, oral gavage 10 mg/kg, Capryol 90/Triacetin (1:1, v/v), listed as Cpd. No. 13 (Lot # 2), 10 mg/kg.
Where [6] appears, read: female, Sprague Dawley, rat, po, 10 mg/kg, Tmax, female Sprague Dawley rats, oral gavage 10 mg/kg, Capryol 90/Triacetin (1:1, v/v).
The mark [7] stands for this setting: female, Sprague Dawley, rat, po, 10 mg/kg, half-life, female Sprague Dawley rats, oral gavage 10 mg/kg, Capryol 90/Triacetin (1:1, v/v).
Setting [8] is: female, Sprague Dawley, rat, po, 10 mg/kg, AUC0−t, female Sprague Dawley rats, oral gavage 10 mg/kg, Capryol 90/Triacetin (1:1, v/v).
Setting [9] is: female, Sprague Dawley, rat, po, 10 mg/kg, Cmax, female Sprague Dawley rats, oral gavage 10 mg/kg, Capryol 90/Triacetin (1:1, v/v).
[10] abbreviates: female Sprague Dawley rats, oral gavage 10 mg/kg, Capryol 90/Triacetin (1:1, v/v).
[11] abbreviates: female, Sprague Dawley, rat, po, 10 mg/kg.
Setting [12] is: female Sprague Dawley rats, oral gavage 10 mg/kg, Capryol 90/Triacetin (1:1, v/v), listed as Cpd. No. 59 (Lot # 1), 10 mg/kg.
Where [13] appears, read: female Sprague Dawley rats, oral gavage 10 mg/kg, Capryol 90/Triacetin (1:1, v/v), listed as Cpd. No. 59 (Lot # 2), 10 mg/kg.

Sequence of RheoSwitch® (CHO-K1_RS-1 cells, firefly Luciferase reporter) (O77240 1-513): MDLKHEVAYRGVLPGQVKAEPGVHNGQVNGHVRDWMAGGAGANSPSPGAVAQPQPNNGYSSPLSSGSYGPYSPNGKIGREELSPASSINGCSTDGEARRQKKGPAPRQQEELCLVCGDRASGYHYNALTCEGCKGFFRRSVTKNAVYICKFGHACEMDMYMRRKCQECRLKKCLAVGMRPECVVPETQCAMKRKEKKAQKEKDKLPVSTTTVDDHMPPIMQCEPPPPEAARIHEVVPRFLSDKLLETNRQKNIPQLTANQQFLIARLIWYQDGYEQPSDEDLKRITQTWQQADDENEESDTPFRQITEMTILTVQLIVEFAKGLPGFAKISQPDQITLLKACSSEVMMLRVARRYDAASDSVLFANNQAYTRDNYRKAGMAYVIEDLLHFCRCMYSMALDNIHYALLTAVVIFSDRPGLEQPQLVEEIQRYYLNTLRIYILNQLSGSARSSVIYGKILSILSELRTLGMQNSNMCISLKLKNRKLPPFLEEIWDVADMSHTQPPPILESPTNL

As to `CCC[C@@H](N(NC(=O)c1ccc(B(O)O)cc1F)C(=O)c1cc(C)cc(C)c1)C(C)(C)C` [Cpd. No. 13, (R)-(4-(2-(3,5-dimethylbenzoyl)-2-(2,2-dimethylhexan-3-yl)hydrazinecarbonyl)-3-fluorophenyl)boronic acid], in data set [1] (setting [4]), the “AUC0−t” value turned out to be 10579 ng·h/mL, the highest concentration (Cmax) is listed as 1415 ng/mL and the Clearance is 938 mL/h/kg. Moreover, in data set [1] (setting [5]), the “AUC0−t” value was determined as 60407 ng·h/mL, the Cmax turned out to be 7060 ng/mL, the time of peak concentration (Tmax) stood at 3.3 h and the half-life worked out at 258 min. The compound further came in with a Clearance in data set [1] (setting [5]) of 169 mL/h/kg. Also, the time to peak (Tmax) in data set [1] (setting [6]) was 2.7 h. This compound also had a half-life in data set [1] (setting [7]) of 192 min. Besides, the EC50 in data set [2] turned out to be 64 nM.
Take `Cc1cc(C)cc(C(=O)N(NC(=O)c2ccc3c(c2C)OCCO3)C(C)(C)C)c1` [Cpd. C]: the exposure AUC(0-t) in data set [3] (AUC0−t) turned out to be 510 ng·h/mL. The peak level in data set [3] (Cmax) (Cmax) was 112 ng/mL. Besides, the time of peak concentration (Tmax) in data set [3] (Tmax) amounted to 2.5 h.
The compound `Cc1cc(C)cc(C(=O)N(NC(=O)c2cccc(B(O)O)c2F)C(C)(C)C)c1` [Cpd. No. 5] had an area under the curve AUC(0-t) in data set [1] (setting [8]) of 18800 ng·h/mL. Besides, the peak level in data set [1] (setting [9]) (Cmax) was 1890 ng/mL. Moreover, the Tmax in data set [1] (setting [6]) came out at 4 h. The same compound had a half-life in data set [1] (setting [7]) of 240 min. The compound also displayed a Clearance in data set [1] (setting [10]) of 533 mL/h/kg. The EC50 in data set [2] was found to be 300 nM.
In the case of `Cc1cc(C)cc(C(=O)N(NC(=O)c2ccc3c(c2F)B(O)OC3)C(C)(C)C)c1` [Cpd. No. 58, N′-(tert-butyl)-N′-(3,5-dimethylbenzoyl)-7-fluoro-1-hydroxy-1,3-dihydrobenzo[c][1,2]oxaborole-6-carbohydrazide], the AUC(0-t) in data set [1] (setting [8]) was found to be 30800 ng·h/mL. The compound also registered a maximum concentration (Cmax) in data set [1] (setting [9]) of 2650 ng/mL. Besides, in data set [1] (setting [6]), the Tmax was 3 h. Further, the half-life in data set [1] (setting [7]) is 924 min. The compound also yielded a Clearance in data set [1] (setting [10]) of 214 mL/h/kg. Further, in data set [2], the concentration giving a half-maximal response (EC50) is 640 nM.
For the compound `Cc1cc(C)cc(C(=O)N(NC(=O)c2ccc3c(c2C)OCCOB3O)C(C)(C)C)c1`, in data set [1] (setting [11]), the area under the curve AUC(0-t) worked out at 13200 ng·h/mL, the highest concentration (Cmax) stood at 1280 ng/mL, the Tmax was 2.3 h and the half-life was 660 min. The compound further registered a Clearance in data set [1] (setting [10]) of 611 mL/h/kg. Besides, the EC50 in data set [2] stood at 259 nM.
Consider `CC[C@@H](N(NC(=O)c1ccc2c(c1F)COB2O)C(=O)c1cc(C)cc(C)c1)C(C)(C)C` [Cpd. No. 67, (R)—N′-(3,5-dimethylbenzoyl)-N′-(2,2-dimethylpentan-3-yl)-4-fluoro-1-hydroxy-1,3-dihydrobenzo[c][1,2]oxaborole-5-carbohydrazide], for which the exposure AUC(0-t) in data set [1] (setting [8]) was found to be 24500 ng·h/mL. The highest level in data set [1] (setting [9]) (Cmax) was 3320 ng/mL. In data set [1] (setting [6]), the Tmax came out at 3 h. The compound also showed a half-life in data set [1] (setting [7]) of 330 min. Further, in data set [1] (setting [10]), the Clearance was 398 mL/h/kg. Moreover, the concentration giving a half-maximal response (EC50) in data set [2] is 309 nM.
Regarding `CC[C@@H](N(NC(=O)c1ccc2c(c1F)B(O)OC2)C(=O)c1cc(C)cc(C)c1)C(C)(C)C` [Cpd. No. 59, (R)—N′-(3,5-dimethylbenzoyl)-N′-(2,2-dimethylpentan-3-yl)-7-fluoro-1-hydroxy-1,3-dihydrobenzo[c][1,2]oxaborole-6-carbohydrazide], in data set [1] (setting [12]), the “AUC0−t” value was 127700 ng·h/mL, the Tmax was determined as 5 h and the Clearance was determined as 84 mL/h/kg. Further, in data set [1] (setting [13]), the “AUC0−t” value stood at 300721 ng·h/mL, the Cmax is 18833 ng/mL, the Tmax is 1.8 h and the half-life was determined as 600 min. The compound also yielded a Clearance in data set [1] (setting [13]) of 32.3 mL/h/kg. In addition, in data set [1] (setting [9]), the highest level (Cmax) was 11200 ng/mL. In addition, the half-life in data set [1] (setting [7]) was 312 min. Further, in data set [2], the 50% effective concentration (EC50) was 108 nM.
